Test results: patent US6716628B2, “Chondrogenesis promoters and indolin-2-one derivatives” (Chugai Seiyaku Kabushiki Kaisha, priority 1999, dated 2004)

Tests used:
[1] = tested on: common mouse chondrocyte and adipocyte precursor cell line (CL-1); experiment: Uptake of 35S-labeled sulfuric acid into CL-1; type: cell-based; details: 10 μmol/L (A and F also 1 or 5 μmol/L), 48 h culture
[2] = tested on: common mouse chondrocyte and adipocyte precursor cell line (CL-1); experiment: Uptake of 35S-labeled sulfuric acid into CL-1; type: cell-based; details: 10 μmol/L (A and F also 1 or 5 μmol/L), 48 h culture, uptake in final 24 h
Protocol: The above-mentioned cell line CL-1 was cultured in a 96-well cell culturing plate (Wallac Corp.) for a liquid scintillation counter (Wallac Corp.) to a cell density of 1000 per well. The medium used was α-MEM (GIBCO Corp.) containing 100 U/mL of penicillin (Meiji Seika Co., Ltd.), 100 μg/mL of streptomycin (Banyu Pharmaceutical Corp.) and 10% fetal bovine serum (INTERGEN Corp.). When the CL-1 cells reached confluency, the medium was exchanged with one containing 10 μmol/L of compounds A, B, C, D, E, F and G, and after 24 hours, ^35S-labeled sulfuric acid was added at 0.5 μCi per well and culturing was continued. For compounds A and F, a medium was also prepared with a concentration of 1 or 5 μmol/L. After 24 hours, the medium was discarded and the cell layer was fixed for 2 hours at room temperature using 0.2 mL of 5% paraformaldehyde (0.1 mol/L phosphate buffer solution (pH 7.4, Wako Pure Chemical Industries) containing 0.4% cetylpyridinium chloride (Wako Pure Chemical Industries). After discarding the fixing solution, it was washed once with the same solution and the washed solution was discarded. After adding 0.1 mL of scintillator (Wallac Corp.) to the cell layer and stirring, the radioactivity was measured with a scintillation counter (Wallac Corp.).

articular cartilage = details: cited from earlier work
[3] = tested on: experimental animal models with induced arthritis; details: administered intraarticularly; Lab. Invest. 78(2):133-142, 1998; cited from earlier work

Row | Molecule | differentiation of CL-1 to adipocytes [1] | differentiation of CL-1 to chondrocytes (from 35S-labeled sulfuric acid uptake) [2] | synovitis (articular cartilage; in vivo) | arthritis-induced loss of proteoglycans in articular cartilage [3] | chondrogenesis (articular cartilage; intraarticularly administered, Lab. Invest. 71(2):279-290, 1994)
1 | 3R)-1-(2,2-diisopropoxyethyl)-3-((4-methylphenyl) aminocarbonylmethyl)-3-(N′-(4-methylphenyl)ureido)indolin-2-one [Compound E] | clearly suppress | clearly promote | – | – | –
2 | CCOC(CN1C(=O)[C@](CC(=O)Nc2ccc(CC)cc2)(NC(=O)Nc2ccc(C)cc2)c2ccccc21)OCC [Compound B, (3R)-1-(2,2-diethoxyethyl)-3-(4-ethylphenyl)aminocarbonylmethyl-3-(N′-(4-methylphenyl)ureido)indolin-2-one] | clearly suppress | clearly promote | – | – | –
3 | CCOC(CN1C(=O)[C@](CC(=O)Nc2ccc(N(C)C)cc2)(NC(=O)Nc2ccc(C)cc2)c2ccccc21)OCC [Compound C] | clearly suppress | clearly promote | – | – | –
4 | COC(CN1C(=O)C(CC(=O)Nc2ccc(C)cc2)(NC(=O)Nc2ccc(C)cc2)c2ccccc21)OC (stereo not drawn) [Compound D] | clearly suppress | clearly promote | – | – | –
5 | Cc1ccc(NC(=O)C[C@]2(NC(=O)Nc3ccc(C)cc3)C(=O)N(CC(OCCF)OCCF)c3ccccc32)cc1 [Compound F] | clearly suppress | clearly promote | – | – | –
6 | Cc1ccc(NC(=O)C[C@]2(NC(=O)Nc3ccc(C)cc3)C(=O)N(CC(OCCCl)OCCCl)c3ccccc32)cc1 [Compound G, 3R)-1-(2,2-bis(2-chloroethoxy)ethyl)-3-((4-methylphenyl) 3-(N′-(4-methylphenyl)ureido)indolin-2-one] | clearly suppress | clearly promote | – | – | –
7 | TGF-β | – | – | provoke synovitis | – | –
8 | TGF-β1: one isoform of TGF-β (Transforming growth factor β) | – | – | – | suppresses | promote chondrogenesis
